Assay results taken from US6402037B1, “Two-photon upconverting dyes and applications” (The Research Foundation of State University of New York, priority 1995, dated 2002).

Legend:
[1] = Two-photon pumped cavity lasing of APSS solution filled hollow fiber (800 nm pump)
Source text: As a comparison, the absorption spectrum of 1 mm-path length pure solvent (DMSO) is also provided. There is a strong absorption band around 400 nm due to APSS dye, and the solution is transparent in the 570˜1100 nm spectral range. However, the two-photon energy of ˜800 nm IR radiation falls into the strong absorption band. Therefore, an effective TPA process is expected by ˜800 nm excitation. […] The same effect is expected with increased path length of the solution sample with a given concentration.
The input 800 nm pump IR laser beam was provided by a pulsed dye laser pumped with a Q-switched and frequency-doubled Nd: YAG laser source. The beam size, pulse duration, angular divergence, and repetition rate of the input pump laser radiation were ˜3 mm, ˜5 ns, ˜1 mrad, and 1-10 Hz, respectively. The pump beam was focused by a 4×-microscope objective into the input end of a 15-cm long hollow quartz fiber filled with APSS, prepared as described in Example 16, in DMSO (do=0.012 M). […] Under the excitation of the input 800 nm pump beam, a strong TPA induced green fluorescence emission was seen from the hollow fiber. […]
The spectral intensity distribution of two-photon pumped cavity lasing from the above system is shown in FIG. 16 (dashed curve) at a pump energy level of Eo=290 μJ. For comparison, the one photon (at 400 nm) induced fluorescence spectrum of the same dye solution with the same concentration is also shown in FIG. 16 (solid curve). The bandwidth of cavity lasing was much narrower than the bandwidth of corresponding one-photon induced fluorescence emission without using any intracavity dispersion element. […] Therefore, the blue-side and central range of the fluorescence band would be expected to be more difficult to lase.
The measured single-pulse waveform was recorded by using a fast photodiode detector in conjunction with a 350 MHz oscilloscope (Tektronix 2467 with C1001 video camera). […] At a pump level of ˜150 μJ, the measured one-pass two-photon absorption in the 15 cm-long dye solution filled hollow fiber sample was only about ˜25%. […]

[2] = Energy transfer measurement (fluorescence of ASPS and TPPS in D2O)
Method: An experiment based on the fluorescence emission of porphyrin and ASPS was conducted to show energy transfer from the dye to the porphyrin. D2O solutions of the ASPS and TPPS were mixed in different concentrations in a quartz cuvette and placed in the sample compartment of a spectrofluorophotometer. […] The beam energy used in this experiment was approximately 50 mJ in a beam having a 4 mm diameter. […] The porphyrin without the ASPS was also irradiated with the IR laser light to determine any possible contributions from the porphyrin due to two-photon excitation. […] ASPS and TPPS solutions were mixed together and a series of spectra were collected to determine dependence of fluorescence emission spectrum on the concentration of the different molecular species.

[3] = Decomposition temperature (Td) by DSC thermogram; assay type: physicochemical; conditions: DSC under nitrogen
Method: Decomposition temperature (“Td”) of each dye was measured by differential scanning calorimetry (“DSC”) thermogram using a Shimadzu DSC-50GPC under nitrogen. Elemental: analysis were performed by Atlantic Microlab, Inc., P.O. Box 2288, Norcross, Ga. 30019. Proton NMR spectra, TV/visible absorption spectra, and UV/visible emission spectra were recorded using a Varian Gemini-300 300 MHz spectrometer, a Shimazdu UV-3101 PC spectrophotometer, and a Shimazdu RF5000U spectrofluorophotometer, respectively: TV/visible absorption spectra of dyes prepared in these Examples in DMF, are provided in FIG. 3.

Molecule: CN(CCO)c1ccc(C=Cc2ccc(S(=O)(=O)CCCCCCO)cc2)cc1 [APSS]
- central wavelength of one-photon fluorescence band ([1]; DMSO 0.012 M, 400 nm excitation): ~520 nm
- strong linear absorption band ([1]; DMSO solution, 1 mm path): around 400 nm
- transparent spectral range ([1]; DMSO solution, 1 mm path): 570˜1100 nm

Molecule: O=S(=O)(O)c1ccc(-c2c3nc(c(-c4ccc(S(=O)(=O)O)cc4)c4ccc([nH]4)c(-c4ccc(S(=O)(=O)O)cc4)c4nc(c(-c5ccc(S(=O)(=O)O)cc5)c5ccc2[nH]5)C=C4)C=C3)cc1 [TPPS, meso tetra(p-sulfonaphenyl)porphyrin]
- emission peak in mixture with ASPS ([2]; 1060 nm excitation): 653 nm
- emission peak ([2]; excited at 610 nm): 650 nm

Molecule: trans-4-[p-(-ethyl-N-hydroxyethylamino)styryl]-N-butansulfonpyridinum [dye4]
- two-photon induced fluorescence emission peak ([2]; 1060 nm excitation): 610 nm
- Decomposition temperature (Td) [3]: 241 °C
